Row | SMILES | melting point [°C]
1 | c1ccc2c(N[C@H]3CC[C@H](Nc4nccc5ccccc45)CC3)nccc2c1 [Example 38, N,N′-Di(isoquinolin-1-yl)-transcyclohexane-1,4-diamine] | 278 to 280
2 | c1ccc2c(NCCCCNc3nccc4ccccc34)nccc2c1 [Example 37, N,N′-Di(isoquinolin-1-yl)-butane-1,4-diamine] | 189 to 192
3 | CS(=O)(=O)O.N=C(Nc1cccc(Nc2noc3ccccc23)c1)c1ccccc1 [Example 25, N-[3-(benzo[d]isoxazol-3-ylamino)phenyl]benzamidine methanesulfonate] | 113 to 115
4 | c1cc(Nc2nnc3c4c(cccc24)-c2ccccc2-3)cc(-n2ccnc2)c1 [Example 39, (Indeno[1,2,3-de]phthalazin-3-yl)-[3-(imidazol-1-yl)-phenyl]-amine] | 223 to 226
5 | c1ccc(Cc2nnc(Nc3cccc(-n4ccnc4)c3)c3ccccc23)cc1 [Example 36, (4-Benzyl-phthalazin-1-yl)-(3-imidazol-1-yl-phenyl)-amine] | 214 to 217
6 | Cn1cncc1-c1cccc(Nc2nccc3ccccc23)c1 [Example 35, [3-(1-methyl-imidazol-5-yl)-phenyl]-(isoquinolin-1-yl)-amine] | 208 to 209
7 | Cn1cncc1-c1cccc(Nc2ccc3ccccc3n2)c1 [Example 34, [3-(1-methyl-imidazol-5-yl)-phenyl]-(quinolin-2-yl)-amine] | 60 to 65
8 | I.N=C(Nc1cccc(Nc2nnc3c4c(cccc24)-c2ccccc2-3)c1)c1ccccc1 | 183 to 186

Now from value to molecule:

Row | melting point [°C] | SMILES
9 | 135 to 137 | c1cc(Nc2nncc3ccccc23)cc(-n2ccnc2)c1 [Example 45, [3-(Imidazol-1-yl)-phenyl]-(phthalazin-1-yl)-amine]
10 | 164 to 167 | c1cc(Nc2nccc3ccccc23)cc(-n2ccnc2)c1 [Example 44, [3-(Imidazol-1-yl)-phenyl]-(isoquinolin-1-yl)-amine]
11 | 149 to 152 | c1cc(CNc2nccc3ccccc23)cc(Nc2nnc3c4c(cccc24)-c2ccccc2-3)c1 [Example 40, (Indeno[1,2,3-de]phthalazin-3-yl)-[3-(isoquinolin-1-ylaminomethyl)-phenyl]-amine]
12 | 235 to 237 | Cc1ncc(-c2cccc(Nc3ncnc4c3CCOc3ccccc3-4)c2)n1C [Example 86, N-[3-(1,2-dimethyl-1H-imidazol-5-yl)phenyl]-5,6-dihydro[1]benzoxepino[5,4-d]pyrimidin-4-amine]
13 | 95 to 105 | c1ccc2c(c1)-c1cccc3c(NCCCCNc4nccc5ccccc45)nnc-2c13 [Example 46, N-(Indeno[1,2,3-de]phthalazin-3-yl)-N′-(isoquinolin-1-yl)-butane-1,4-diamine]
14 | 152 to 156 | c1cc(Nc2ccc(-n3cccc3)cn2)cc(-n2ccnc2)c1 [Example 87, N-[3-(imidazol-1-yl)phenyl]-N-[5-(pyrrol-1-yl)pyridin-2-yl]-amine]

From patent US20030176454A1, “N-coating heterocyclic compounds” (priority 2000, published 2003)
